This note sets out measurements from patent US11852633B2 (priority 2017, dated 2023).

For the assay the following is noted: K2CO3 5 mM, CH3CN:water (4:1), 1 hour.

For the compound `O=[N+]([O-])c1ccc(S(=O)(=O)Oc2ccccc2)c([N+](=O)[O-])c1` [probe 1, phenyl 2,4-dinitrobenzenesulfonate], the “CD response with other L-amino acids (phenylalanine, alanine, serine, tyrosine) versus L-Cys” value (probe 2.50 mM, amino acid 1.25 mM) was “remained CD silent with the exception of the cysteine solution”. The “CD response with biothiols L-homocysteine and L-glutathione” value (probe 2.5 mM, biothiol 1.25 mM) was “no induction of a CD signal”.
